In this test the test system is 855422-203-R-J1-PDC spheroids with HUVEC/MSC, viability. Nature of the test: Anticancer human tumor 855422-203-R-J1-PDC patient-derived bladder carcinoma cell line growth inhibition [PI3K]. Particulars: for viability, T/C: stronger effect = lower value. From the text:
Combinatorial screen of targeted agents with the PI3K inhibitors inavolisib, alpelisib, duvelisib, and copanlisib in multi-cell type tumor spheroids
A high-throughput screen of multi-cell type tumor spheroids was designed to identify active combinations of targeted small molecules and PI3K pathway inhibitors. Complex spheroids include a stromal component modeled by human endothelial cells (HUVEC) and fibroblasts modeled by human mesenchymal stem cells (MSCs). The concentration ranges selected for each drug and investigational agent were based upon clinically achievable concentrations if the clinical Cmax of the agent was known.
Compounds. The drugs and investigational agents: inavolisib (NSC800729), alpelisib (NSC765974), duvelisib (NSC772469), copanlisib (NSC816437), ipatasertib (NSC767898), afuresertib (NSC778305), talazoparib (NSC767125), sapanisertib (NSC764658), selumetinib (NSC741078), tovorafenib (DAY101, NSC766906), vemurafenib (NSC761431), ravoxertinib (NSC781343), sotorasib (NSC818433), MRTX1133 (NSC 836407), abemaciclib (NSC 768073), palbociclib (NSC758247), venetoclax (NSC 766270), SY5609 (NSC837396), enzalutamide (NSC755605), and darolutamide (NSC825331), were obtained from the National Cancer Institute (NCI) Developmental Therapeutics Program Chemical Repository. The FDA-approved anticancer drug set is available from the NCI Developmental Therapeutics Program. […] The stock solutions were prepared in dimethyl sulfoxide (DMSO, Sigma-Aldrich, St. Louis, MO, cat. D2650) at 800-fold the tested concentration and stored at -70 degrees C prior to their use. All drugs and investigational agents were tested over a range starting from a high concentration at or near the clinical Cmax and decreasing in half-log increments. If the clinical Cmax for an agent had not been determined, the highest concentration tested was 10 microM.
Cell Culture. All cells were maintained in an incubator at 37 degrees C and 5% CO2 with 95% humidity. The PDC lines were cultured according to standard operating procedures established by the NCI PDMR (https://pdmr.cancer.gov/sops/default.htm). All PDCs were thawed and cultured in Matrigel-coated flasks prepared with a working solution of 1X Ham's F-12 nutrient mix, without supplementation (Invitrogen, Waltham, MA, cat. 11765054), 100 U/mL penicillin-streptomycin (Invitrogen, cat. 15140122), and 2.5% Matrigel (Corning Inc., Corning, NY, cat. 354248) for the first three passages. The 354836-022-R-J1-PDC, 475296-252-R-J1-PDC, and 997726-040-R-J2-PDC lines were cultured in 6A media, which includes advanced DMEM/F-12 (Thermo Fisher Scientific, cat. 12634028), 10 mM HEPES (Thermo Fisher Scientific, cat. 15630080), 1X GlutaMAX supplement (Thermo Fisher Scientific, cat. 35050061), 0.1 mg/mL primocin (InvivoGen, San Diego, CA, cat. ant-pm-2), 10% defined fetal bovine serum, heat inactivated (HyClone Laboratories Inc., Logan, UT, cat. SH30070.03HI), 50% L-WRN conditioned media (ATCC, cat. CRL-3276), 1.25 mM N-Acetyl-L-cysteine (Sigma-Aldrich, cat. A9165), 10 mM nicotinamide (Sigma-Aldrich, cat. N0636), 1X B-27 supplement (Thermo Fisher Scientific, cat. 17504044), 1X N-2 supplement (Thermo Fisher Scientific, cat. 17502048), and 10 microM Y-27632 dihydrochloride (Tocris Bioscience, Bristol, United Kingdom, cat. 1254). The 624824-186-R-J2-PDC line was cultured in 6C/Colon 1B media, which includes all 6A media components plus 50 ng/mL human EGF recombinant protein (Thermo Fisher Scientific, cat. PHG0311). […]

Each structure is given as a SMILES string.
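Further: agents incubated with spheroids for one week before read-out.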
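Wherever viability, T/C is given: 100% = DMSO vehicle-treated control wells.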

For orientation: viability, T/C means the result in the treated group divided by that in the control group, in per cent. What is called IC50 is the concentration that gives 50% inhibition. Consider `CC(Nc1ccc2c(c1)OCCn1cc(N3C(=O)OCC3C(F)F)nc1-2)C(N)=O` (stereo not drawn), for which the viability, T/C is, setting by setting: (compound 0.00316 µM) 107% [middle of 8 runs]; (compound 0.01 µM) 104% [middle of 8 runs]; (compound 0.0316 µM) 98.5% [middle of 8 runs]; (compound 0.1 µM) 76.7% [middle of 8 runs]; (compound 0.316 µM) 50.6% [middle of 8 runs]; (compound 1 µM) 35.6% [middle of 8 runs]. Also, the IC50 (compound alone, run of 05/08/2023) was 300 nM [middle of 8 runs].
Consider `COc1c(OCCCN2CCOCC2)ccc2c3n(c(=NC(=O)c4cnc(N)nc4)nc12)CCN3`, for which the viability, T/C is 100% [middle of 8 runs] (compound 0.00316 µM); 92% [middle of 8 runs] (compound 0.01 µM); 71.8% [middle of 8 runs] (compound 0.0316 µM); 30.5% [middle of 8 runs] (compound 0.1 µM); 9.42% [middle of 8 runs] (compound 0.316 µM); 4.6% [middle of 8 runs] (compound 1 µM). The 50% inhibitory concentration (IC50) (compound alone, run of 05/09/2023) is 58.2 nM [middle of 8 runs].
Regarding `CNC(=O)c1ccc(N2C(=S)N(c3ccc(C#N)c(C(F)(F)F)c3)C(=O)C2(C)C)cc1F` + COc1c(OCCCN2CCOCC2)ccc2c3n(c(=NC(=O)c4cnc(N)nc4)nc12)CCN3, the half-maximal inhibitory concentration (IC50) reads like this: (curve of first compound, second compound 0.00316 µM) more than 10 µM; (curve of first compound, second compound 0.01 µM) more than 10 µM; (curve of first compound, second compound 0.0316 µM) more than 10 µM; (curve of first compound, second compound 0.1 µM) less than 0.0316 µM; (curve of first compound, second compound 0.316 µM) less than 0.0316 µM; (curve of first compound, second compound 1 µM) less than 0.0316 µM. The viability, T/C is 94.3% (second compound 0.00316 µM, first compound 0.0316 µM); 79.5% (second compound 0.00316 µM, first compound 0.1 µM); 90.7% (second compound 0.00316 µM, first compound 0.316 µM); 83.1% (second compound 0.00316 µM, first compound 1 µM); 71.5% (second compound 0.00316 µM, first compound 3.16 µM); 66.5% (second compound 0.00316 µM, first compound 10 µM). The viability, T/C runs as follows: (second compound 0.01 µM, first compound 0.0316 µM) 74%; (second compound 0.01 µM, first compound 0.1 µM) 85.1%; (second compound 0.01 µM, first compound 0.316 µM) 74.5%; (second compound 0.01 µM, first compound 1 µM) 76.1%; (second compound 0.01 µM, first compound 3.16 µM) 81.4%; (second compound 0.01 µM, first compound 10 µM) 68.5%. For the same compound, the viability, T/C by setting is: (second compound 0.0316 µM, first compound 0.0316 µM) 63.4%; (second compound 0.0316 µM, first compound 0.1 µM) 69.3%; (second compound 0.0316 µM, first compound 0.316 µM) 70.8%; (second compound 0.0316 µM, first compound 1 µM) 61.2%; (second compound 0.0316 µM, first compound 3.16 µM) 62.4%; (second compound 0.0316 µM, first compound 10 µM) 58.2%. Also, the viability, T/C is 30.2% (second compound 0.1 µM, first compound 0.0316 µM); 32.3% (second compound 0.1 µM, first compound 0.1 µM); 30.2% (second compound 0.1 µM, first compound 0.316 µM); 32.9% (second compound 0.1 µM, first compound 1 µM); 34.5% (second compound 0.1 µM, first compound 3.16 µM); 29.4% (second compound 0.1 µM, first compound 10 µM). Further, the viability, T/C is, setting by setting: (second compound 0.316 µM, first compound 0.0316 µM) 11.5%; (second compound 0.316 µM, first compound 0.1 µM) 10.8%; (second compound 0.316 µM, first compound 0.316 µM) 8.16%; (second compound 0.316 µM, first compound 1 µM) 12.7%; (second compound 0.316 µM, first compound 3.16 µM) 9.19%; (second compound 0.316 µM, first compound 10 µM) 10.1%. The viability, T/C reads like this: (second compound 1 µM, first compound 0.0316 µM) 4.1%; (second compound 1 µM, first compound 0.1 µM) 4.74%; (second compound 1 µM, first compound 0.316 µM) 4.6%; (second compound 1 µM, first compound 1 µM) 4.66%; (second compound 1 µM, first compound 3.16 µM) 5.91%; (second compound 1 µM, first compound 10 µM) 4.28%.
On to `CNC(=O)c1ccc(N2C(=S)N(c3ccc(C#N)c(C(F)(F)F)c3)C(=O)C2(C)C)cc1F`, for which the viability, T/C reads like this: (compound 0.0316 µM) 110% [middle of 4 runs]; (compound 0.1 µM) 99.4% [middle of 4 runs]; (compound 0.316 µM) 106% [middle of 4 runs]; (compound 1 µM) 84.8% [middle of 4 runs]; (compound 3.16 µM) 79.4% [middle of 4 runs]; (compound 10 µM) 66.9% [middle of 4 runs]. The IC50 (curve of compound) was more than 10 µM.

These data come from PubChem BioAssay AID1963967 (Molecular Pharmacology Branch, DTP, NCI, 2024).
